Activity calls are given as the source filed them. Cut-off read from the data, not from the text of the source, for most assays here: actives have a measured Kd and inactives only a lower limit.

One experiment concerns the target Activin receptor type-2B (Homo sapiens, UniProt Q13705).
The target in experiment [1] is Cyclin-dependent kinase 17 (Homo sapiens, UniProt Q00537).
The target in experiment [2] is Chromodomain-helicase-DNA-binding protein 4 (Homo sapiens, UniProt Q14839).
The target in experiment [3] is Casein kinase I isoform epsilon (Homo sapiens, UniProt P49674).
The target of the next experiment is LIM domain kinase 2 (Homo sapiens, UniProt P53671).
Experiment [4] deals with Protein kinase C alpha type (Homo sapiens, UniProt P17252).
Experiment [5] has as its target Protein-tyrosine kinase 2-beta (Homo sapiens, UniProt Q14289).
Experiment [6] addresses T1, Exosome RNA helicase MTR4 (Homo sapiens, UniProt P42285).
T1 sequence (P42285 whole entry): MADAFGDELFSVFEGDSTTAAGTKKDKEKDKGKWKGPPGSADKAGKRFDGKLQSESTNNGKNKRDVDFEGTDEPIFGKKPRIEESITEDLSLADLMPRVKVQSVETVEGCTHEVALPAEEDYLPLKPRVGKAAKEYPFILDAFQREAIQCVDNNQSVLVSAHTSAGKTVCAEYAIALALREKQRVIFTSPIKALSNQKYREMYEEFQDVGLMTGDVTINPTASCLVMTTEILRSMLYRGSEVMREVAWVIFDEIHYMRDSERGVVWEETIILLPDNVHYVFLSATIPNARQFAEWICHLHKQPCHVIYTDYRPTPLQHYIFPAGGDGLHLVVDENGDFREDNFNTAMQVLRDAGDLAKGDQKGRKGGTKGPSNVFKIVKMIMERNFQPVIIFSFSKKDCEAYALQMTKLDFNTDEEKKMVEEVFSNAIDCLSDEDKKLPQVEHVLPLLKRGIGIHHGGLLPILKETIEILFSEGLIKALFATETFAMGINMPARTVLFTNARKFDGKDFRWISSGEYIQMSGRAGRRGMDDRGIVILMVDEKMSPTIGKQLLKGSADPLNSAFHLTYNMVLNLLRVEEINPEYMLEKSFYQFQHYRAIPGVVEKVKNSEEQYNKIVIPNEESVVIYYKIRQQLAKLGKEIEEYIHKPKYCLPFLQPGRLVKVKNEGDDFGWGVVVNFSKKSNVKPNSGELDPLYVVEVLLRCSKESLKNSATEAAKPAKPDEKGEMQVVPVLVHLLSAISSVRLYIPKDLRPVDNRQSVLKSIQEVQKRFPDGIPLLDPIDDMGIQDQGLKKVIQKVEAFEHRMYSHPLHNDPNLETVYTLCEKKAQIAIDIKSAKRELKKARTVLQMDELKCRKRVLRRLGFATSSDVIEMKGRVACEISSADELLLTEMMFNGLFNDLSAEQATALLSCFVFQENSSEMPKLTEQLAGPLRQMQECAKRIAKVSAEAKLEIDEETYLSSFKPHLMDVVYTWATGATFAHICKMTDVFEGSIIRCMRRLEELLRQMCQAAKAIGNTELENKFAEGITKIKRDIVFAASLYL

Experiment [7] deals with T2, Serine/threonine-protein kinase 3 (Homo sapiens, UniProt Q13188).
T2 sequence (Q13188 whole entry): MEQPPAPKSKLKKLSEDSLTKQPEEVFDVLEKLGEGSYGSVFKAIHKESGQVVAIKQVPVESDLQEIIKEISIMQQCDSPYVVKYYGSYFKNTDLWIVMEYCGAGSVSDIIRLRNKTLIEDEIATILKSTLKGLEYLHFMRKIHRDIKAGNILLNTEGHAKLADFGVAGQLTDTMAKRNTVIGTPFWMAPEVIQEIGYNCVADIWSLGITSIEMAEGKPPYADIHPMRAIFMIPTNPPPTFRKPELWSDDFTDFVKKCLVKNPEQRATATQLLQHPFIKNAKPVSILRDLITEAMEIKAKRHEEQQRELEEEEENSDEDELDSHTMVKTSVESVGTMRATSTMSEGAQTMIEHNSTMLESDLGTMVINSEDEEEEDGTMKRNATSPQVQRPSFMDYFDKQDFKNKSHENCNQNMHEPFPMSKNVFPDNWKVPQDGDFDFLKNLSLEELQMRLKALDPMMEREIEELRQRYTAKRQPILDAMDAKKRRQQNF

Experiment [8] addresses T3, EKC/KEOPS complex subunit TP53RK (Homo sapiens, UniProt Q96S44).
T3 sequence (Q96S44 whole entry): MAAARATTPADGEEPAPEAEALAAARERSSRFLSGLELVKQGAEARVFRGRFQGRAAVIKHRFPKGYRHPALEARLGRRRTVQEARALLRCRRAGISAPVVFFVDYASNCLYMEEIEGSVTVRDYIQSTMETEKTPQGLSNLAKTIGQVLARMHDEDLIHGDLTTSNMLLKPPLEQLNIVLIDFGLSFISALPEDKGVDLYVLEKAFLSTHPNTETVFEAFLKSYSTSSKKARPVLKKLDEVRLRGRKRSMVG

Experiment [9] concerns the target T4, General transcription and DNA repair factor IIH helicase subunit XPD (Homo sapiens, UniProt P18074).
T4 sequence (P18074 whole entry): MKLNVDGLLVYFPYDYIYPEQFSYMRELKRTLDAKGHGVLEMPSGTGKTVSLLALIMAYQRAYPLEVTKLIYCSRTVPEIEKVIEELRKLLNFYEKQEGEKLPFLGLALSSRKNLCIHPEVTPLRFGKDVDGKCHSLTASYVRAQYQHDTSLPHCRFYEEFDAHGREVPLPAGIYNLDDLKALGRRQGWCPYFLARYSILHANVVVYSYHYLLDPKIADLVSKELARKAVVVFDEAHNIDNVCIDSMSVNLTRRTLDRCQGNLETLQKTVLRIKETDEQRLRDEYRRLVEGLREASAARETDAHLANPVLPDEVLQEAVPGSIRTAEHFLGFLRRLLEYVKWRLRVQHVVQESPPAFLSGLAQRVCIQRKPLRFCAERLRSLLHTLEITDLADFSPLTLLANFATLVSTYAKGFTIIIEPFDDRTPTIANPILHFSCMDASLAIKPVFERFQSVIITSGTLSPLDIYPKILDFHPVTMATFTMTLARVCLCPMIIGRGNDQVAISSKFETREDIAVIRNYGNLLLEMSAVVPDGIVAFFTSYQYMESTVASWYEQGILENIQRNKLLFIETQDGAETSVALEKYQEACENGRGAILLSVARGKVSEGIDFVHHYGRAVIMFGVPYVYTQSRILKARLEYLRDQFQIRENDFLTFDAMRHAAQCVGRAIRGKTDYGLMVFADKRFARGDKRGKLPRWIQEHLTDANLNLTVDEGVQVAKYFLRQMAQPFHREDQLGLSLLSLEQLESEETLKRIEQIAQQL
The settings on record: read-out: Kd apparent; k-562, colo 205, sk-n-be(2) and mv-4-11.
Note: in the data inactive means no Kd found up to 30 µM.

Chain of Activin receptor type-2B (Q13705 whole entry): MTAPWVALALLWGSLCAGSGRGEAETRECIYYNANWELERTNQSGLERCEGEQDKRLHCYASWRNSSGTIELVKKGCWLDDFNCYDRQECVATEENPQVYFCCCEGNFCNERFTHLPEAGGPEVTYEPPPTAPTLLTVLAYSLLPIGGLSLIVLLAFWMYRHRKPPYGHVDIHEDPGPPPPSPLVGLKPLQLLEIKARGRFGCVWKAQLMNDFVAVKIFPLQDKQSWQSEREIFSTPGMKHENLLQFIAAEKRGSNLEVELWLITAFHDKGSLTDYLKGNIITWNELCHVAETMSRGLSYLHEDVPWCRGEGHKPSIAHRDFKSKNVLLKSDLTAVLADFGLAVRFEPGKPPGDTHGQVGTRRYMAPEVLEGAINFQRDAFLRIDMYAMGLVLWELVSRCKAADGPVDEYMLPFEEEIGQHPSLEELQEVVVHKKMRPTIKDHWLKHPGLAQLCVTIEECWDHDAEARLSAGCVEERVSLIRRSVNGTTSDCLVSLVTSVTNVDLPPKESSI
Chain of Protein-tyrosine kinase 2-beta (Q14289 whole entry): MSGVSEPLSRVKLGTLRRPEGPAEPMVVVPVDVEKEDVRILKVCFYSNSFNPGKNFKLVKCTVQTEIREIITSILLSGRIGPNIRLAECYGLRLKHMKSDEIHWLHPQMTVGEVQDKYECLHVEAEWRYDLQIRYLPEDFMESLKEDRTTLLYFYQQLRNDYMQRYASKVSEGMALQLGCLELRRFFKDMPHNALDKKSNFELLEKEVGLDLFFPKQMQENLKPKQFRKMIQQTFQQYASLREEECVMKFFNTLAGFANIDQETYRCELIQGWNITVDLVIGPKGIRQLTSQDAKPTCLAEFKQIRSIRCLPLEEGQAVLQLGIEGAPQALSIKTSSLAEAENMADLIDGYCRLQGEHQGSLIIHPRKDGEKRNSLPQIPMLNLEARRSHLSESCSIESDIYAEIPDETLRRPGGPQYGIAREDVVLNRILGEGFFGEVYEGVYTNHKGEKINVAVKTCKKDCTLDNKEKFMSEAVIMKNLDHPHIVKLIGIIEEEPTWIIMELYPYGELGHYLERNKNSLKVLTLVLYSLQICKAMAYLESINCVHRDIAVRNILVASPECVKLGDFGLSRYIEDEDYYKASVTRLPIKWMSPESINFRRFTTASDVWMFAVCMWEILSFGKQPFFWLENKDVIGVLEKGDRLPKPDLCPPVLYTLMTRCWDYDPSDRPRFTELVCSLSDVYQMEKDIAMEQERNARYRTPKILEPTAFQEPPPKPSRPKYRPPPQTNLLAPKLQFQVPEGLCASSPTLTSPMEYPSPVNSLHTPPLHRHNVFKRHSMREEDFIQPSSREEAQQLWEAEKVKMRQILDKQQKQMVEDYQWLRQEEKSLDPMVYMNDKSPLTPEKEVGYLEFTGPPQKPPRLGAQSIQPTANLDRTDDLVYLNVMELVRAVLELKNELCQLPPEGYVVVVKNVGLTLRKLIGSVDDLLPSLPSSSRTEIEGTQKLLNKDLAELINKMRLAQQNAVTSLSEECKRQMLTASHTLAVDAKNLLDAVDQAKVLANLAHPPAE
Chain of Casein kinase I isoform epsilon (P49674 whole entry, the tested form may be a part, canonical isoform): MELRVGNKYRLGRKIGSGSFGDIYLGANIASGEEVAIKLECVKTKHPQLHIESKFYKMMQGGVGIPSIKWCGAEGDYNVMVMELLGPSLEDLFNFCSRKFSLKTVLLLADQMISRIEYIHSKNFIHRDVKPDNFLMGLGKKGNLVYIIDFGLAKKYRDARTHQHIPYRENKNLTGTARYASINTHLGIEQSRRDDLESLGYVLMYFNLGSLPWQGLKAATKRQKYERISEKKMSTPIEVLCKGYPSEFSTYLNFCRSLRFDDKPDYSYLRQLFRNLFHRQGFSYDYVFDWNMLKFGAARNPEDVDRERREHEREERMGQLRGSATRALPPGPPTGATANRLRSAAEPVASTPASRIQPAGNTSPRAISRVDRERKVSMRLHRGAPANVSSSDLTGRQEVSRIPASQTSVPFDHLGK
Chain of LIM domain kinase 2 (P53671 whole entry, the tested form may be a part): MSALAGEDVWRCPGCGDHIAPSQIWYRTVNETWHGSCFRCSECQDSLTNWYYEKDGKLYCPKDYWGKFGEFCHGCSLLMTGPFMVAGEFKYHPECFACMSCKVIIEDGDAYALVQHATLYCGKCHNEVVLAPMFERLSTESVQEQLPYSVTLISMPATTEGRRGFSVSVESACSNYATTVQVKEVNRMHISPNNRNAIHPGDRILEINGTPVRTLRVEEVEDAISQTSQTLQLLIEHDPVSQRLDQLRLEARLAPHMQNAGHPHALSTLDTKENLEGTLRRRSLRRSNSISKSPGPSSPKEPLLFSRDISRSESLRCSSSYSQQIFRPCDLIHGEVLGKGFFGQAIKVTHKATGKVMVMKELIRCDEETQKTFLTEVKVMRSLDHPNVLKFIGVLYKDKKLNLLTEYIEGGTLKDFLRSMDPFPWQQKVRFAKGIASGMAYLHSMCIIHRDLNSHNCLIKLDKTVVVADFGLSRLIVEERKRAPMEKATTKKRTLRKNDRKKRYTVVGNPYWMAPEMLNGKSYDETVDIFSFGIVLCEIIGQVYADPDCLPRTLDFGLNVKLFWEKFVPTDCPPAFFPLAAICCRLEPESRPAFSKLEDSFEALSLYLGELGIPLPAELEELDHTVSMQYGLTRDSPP
Chain of Cyclin-dependent kinase 17 (Q00537 whole entry): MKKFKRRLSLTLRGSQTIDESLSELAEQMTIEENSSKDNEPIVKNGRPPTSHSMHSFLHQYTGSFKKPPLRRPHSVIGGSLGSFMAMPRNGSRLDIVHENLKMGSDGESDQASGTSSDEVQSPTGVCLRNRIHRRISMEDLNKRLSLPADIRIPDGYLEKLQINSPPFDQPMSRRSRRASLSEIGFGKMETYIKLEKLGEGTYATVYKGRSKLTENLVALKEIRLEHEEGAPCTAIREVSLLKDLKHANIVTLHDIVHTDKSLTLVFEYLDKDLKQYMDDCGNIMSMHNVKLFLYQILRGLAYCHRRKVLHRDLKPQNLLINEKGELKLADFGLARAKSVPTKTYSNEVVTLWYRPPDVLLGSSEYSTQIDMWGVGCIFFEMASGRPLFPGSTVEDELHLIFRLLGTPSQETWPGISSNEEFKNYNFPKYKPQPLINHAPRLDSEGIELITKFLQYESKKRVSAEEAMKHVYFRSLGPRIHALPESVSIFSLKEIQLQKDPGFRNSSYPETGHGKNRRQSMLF

Consider `CNC(=O)c1cccc2cc(Oc3ccnc4cc(OCC5(N)CC5)c(OC)cc34)ccc12` [LUCITANIB], for which the Kd (at Activin receptor type-2B; in [1]; in experiment [2]; in experiment [3]; at LIM domain kinase 2; in experiment [4]) was > 30 µM (inactive) throughout. Moreover, the Kd in [5], in experiment [6], in [7], in [8] and in [9] was > 30 µM (inactive) in each case.
Take `NC1(c2ccc(-c3nc4ccn5c(=O)[nH]nc5c4cc3-c3ccccc3)cc2)CCC1` [MK-2206]: the Kd (at Activin receptor type-2B; in experiment [1]; in [2]; in [3]; on LIM domain kinase 2; in [4]) was > 30 µM (inactive) each time. Besides, the Kd in [5], in experiment [6], in experiment [7], in experiment [8] and in experiment [9] was > 30 µM (inactive) throughout.
Consider `CN(C[C@@H]1COCCO1)S(=O)(=O)Nc1ccc2ccc3ncc(-c4cnn(C)c4)cc3c(=O)c2c1` [MK-2461], for which the Kd (at Activin receptor type-2B; in experiment [1]; in [2]; in [3]; on LIM domain kinase 2; in experiment [4]) was > 30 µM (inactive) each time. In addition, the Kd in experiment [5], in [6], in experiment [7], in experiment [8] and in [9] was > 30 µM (inactive) in each case.
`Cn1cc(-c2cnc3ccc4ccc(CS(=O)(=O)NCc5ccccn5)cc4c(=O)c3c2)cn1` [MK-8033]: the Kd (on Activin receptor type-2B; in [1]; in experiment [2]; in [3]; on LIM domain kinase 2; in experiment [4]) was > 30 µM (inactive) throughout. The Kd in [5], in experiment [6], in [7], in experiment [8] and in [9] was > 30 µM (inactive) in each case.
On to `FC(F)(F)c1ccc(/C=C/c2nc(COc3ccc(CCCCn4ccnn4)cc3)co2)cc1` [MUBRITINIB], for which the Kd (at Activin receptor type-2B; in [1]; in [2]; in [3]; on LIM domain kinase 2; in experiment [4]) was > 30 µM (inactive) each time. In addition, the Kd in experiment [5], in experiment [6], in [7], in [8] and in experiment [9] was > 30 µM (inactive) in each case.
On to `COc1ncc(-c2ccc3nccc(-c4ccnnc4)c3c2)cc1NS(=O)(=O)c1ccc(F)cc1F` [OMIPALISIB], for which the Kd (at Activin receptor type-2B; in [1]; in experiment [2]; in experiment [3]; at LIM domain kinase 2; in [4]) was > 30 µM (inactive) throughout. The Kd in experiment [5], in [6], in experiment [7], in [8] and in experiment [9] was > 30 µM (inactive) throughout.
In the case of `CCOc1cc2ncc(C#N)c(Nc3ccc(F)c(Cl)c3)c2cc1NC(=O)/C=C/CN(C)C` [PELITINIB], the Kd is > 30 µM (inactive) at Activin receptor type-2B; > 30 µM (inactive) in experiment [1]; > 30 µM (inactive) in [2]; 1.48 µM (active) in [3]; > 30 µM (inactive) at LIM domain kinase 2; > 30 µM (inactive) in experiment [4]. Moreover, the Kd in [5], in experiment [6], in experiment [7], in experiment [8] and in experiment [9] was > 30 µM (inactive) each time.
As for `CCCCCCCCCCCCCCCCCCOP(=O)([O-])OC1CC[N+](C)(C)CC1` [PERIFOSINE], the Kd (on Activin receptor type-2B; in [1]; in [2]; in [3]; at LIM domain kinase 2; in experiment [4]) was > 30 µM (inactive) in each case. In addition, the Kd in experiment [5], in experiment [6], in experiment [7], in experiment [8] and in [9] was > 30 µM (inactive) each time.
Consider `Cc1nc(Nc2n[nH]c3c2CN(C(=O)N[C@H](CN(C)C)c2ccccc2)C3(C)C)c2sccc2n1` [PF-03758309], for which the Kd on Activin receptor type-2B is > 30 µM (inactive); in experiment [1], 0.014 µM (active); in experiment [2], > 30 µM (inactive); in experiment [3], > 30 µM (inactive); at LIM domain kinase 2, > 30 µM (inactive); in experiment [4], 0.873 µM (active). The Kd was 1.4 µM (active) in experiment [5]; > 30 µM (inactive) in [6]; 2.2 µM (active) in experiment [7]; > 30 µM (inactive) in experiment [8]; 0.002 µM (active) in experiment [9].

The values are drawn from ChEMBL document CHEMBL3991601, “The target landscape of clinical kinase drugs” (Science, 2017).
